Here are results for 7 compounds from patent US7202046B2, “Use of a fluorescent protein for detecting interaction between a target protein and its ligand” (priority 1997, dated 2007).

The subject of one assay is NK2R-RF1 receptor. As to the kind of experiment: Fluorescence energy transfer between fluorescent ligand and NK2R-RF1 on HEK293 cells in suspension. The following applies: for detection of receptor-fluorescent ligand interaction signal (energy transfer): 100 nM fluorescent ligand, real time; for detection of receptor-fluorescent ligand interaction signal (energy transfer) / inhibition of real-time energy transfer between 100 nM NKA BO I and NK2R-RF1 / Kd: emission 510 nm; for inhibition of real-time energy transfer between 100 nM NKA BO I and NK2R-RF1: 20 μM non-fluorescent ligand; for inhibition of real-time energy transfer between 100 nM NKA BO I and NK2R-RF1 / Kd: 10^6 cells/ml; for reversal of the energy transfer signal by excess non-labeled ligand, at equilibrium: 1–10 μM non-labeled ligand after 100 nM NKA BO I; for Kd: 0 to 256 nM ligand, read-out: affinity value KD from amplitude of the fluorescence signal. In kind it is binding, rat. The procedure:
The fluorescence experiments are carried out in a 1 ml tank fitted with a magnetic stirring system and placed in a Fluorolog spectrofluorimeter (SPEX) equipped with a 450 W xenon lamp (Osram) and Spex 1680 0.22 m (excitation) and Spex 1681 0.22 m (emission) monochromators. The cells or the membrane fragments are suspended in physiological buffer: 10 mM Hepes, 137.5 mM NaCl, 1.25 mM MgCl2, 1.25 mM CaCl2, 6 mM KCl, 5.6 mM glucose, 0.4 mM NaH2PO4, 0.1% (w/v) BSA, pH 7.4.
The HEK293 cells expressing the NK2R-RF1 are suspended at a concentration of 1,000,000 cells/ml in Hepes physiological buffer (10 mM Hepes, 137.5 mM NaCl, 1.25 mM MgCl2, 1.25 mM CaCl2, 6 mM KCl, 5.6 mM glucose, 0.4 mM NaH2PO4, 0.1% (w/v) BSA, pH 7,4). The cells are then placed in a fluorescence tank at a concentration which can range from 100,000 to 1,000,000 cells/ml. […] The emission spectrum of the solution is again recorded. […] The appearance of a peak at 550–560 nm during the addition of the fluorescent ligand and a reduction in its intensity during the addition of non-labeled ligand are also detected. […] The signal is reversible by means of addition of a pharmacological agent capable of inhibiting the interaction between the ligand and its receptor.
The same recordings can be made in real time. For this, the excitation wavelength is set at 460 nm and the emission wavelength is set at 510 nm. […] The final value of the fluorescence intensity can be higher than the initial value when the absorption of the fluorescent ligand contributes to the signal.

Assay [1] has as its target T1, wild-type NK2R receptor (Rattus norvegicus, UniProt P16610).
T1 construct: expressed in transfected cells; host or cells: HEK 293 cells, construct pCEP4-NK2R
T1 sequence (P16610 1-390): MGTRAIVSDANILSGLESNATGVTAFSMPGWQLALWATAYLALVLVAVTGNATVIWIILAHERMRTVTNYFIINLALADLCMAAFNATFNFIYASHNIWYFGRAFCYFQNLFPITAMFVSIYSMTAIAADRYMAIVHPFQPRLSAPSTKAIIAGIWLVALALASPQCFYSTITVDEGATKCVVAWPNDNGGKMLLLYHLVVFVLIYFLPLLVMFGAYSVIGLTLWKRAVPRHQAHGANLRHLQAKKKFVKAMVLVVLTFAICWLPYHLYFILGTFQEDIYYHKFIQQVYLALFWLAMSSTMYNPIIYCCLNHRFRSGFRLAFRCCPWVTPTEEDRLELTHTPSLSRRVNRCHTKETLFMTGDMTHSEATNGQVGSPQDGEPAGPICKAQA
As to the kind of experiment: Release of intracellular calcium (FURA 2), cells expressing pCEP4-NK2R WT. In kind it is cell-based. Particulars: for inhibition of the NKA-elicited calcium response: antagonist (5 μM cyclopeptide) then 10 nM NKA. The protocol:
(§1) The fluorescent calcium-chelating agent, FURA 2 acetyl methyl ester (Molecular Probes), dissolved in DMSO is diluted to a concentration of 3 μM in 10 mM Hepes, 137.5 mM NaCl, 1.25 mM MgCl2, 1.25 mM CaCl2, 6 mM KCl, 5.6 mM glucose, 0.4 mM NaH2PO4, 0.1% (w/v) BSA, pH 7.4 buffer. The cell culture medium is aspirated and then replaced with 7 to 10 ml of FURA 2 AM solution. The cells are placed in the CO2 incubator for 45 min. The medium is then aspirated, replaced with FURA-free Hepes buffer and the cells are replaced in the CO2 incubator for a further 15 min. The buffer is aspirated and the cells are then collected after they have been detached from the dish with a 5 mM EDTA, PBS solution for 5 min. After centrifugation at 1000×g for 5 min., the cell pellet obtained is re-suspended at a rate of 1×10^6 cells/ml in Hepes buffer.
(§2) The calcium-release measurements are carried out at 37° C., in a spectrofluorimetiy tank containing a magnetic stirrer bar. The excitation wavelength is set at […] and the emission wavelength is set at 510 nm.
On the technique in general: Calcium assays in cells follow changes in intracellular calcium, usually with a dye or a luminescent sensor.

The subject of the next assay is NK2R-RF1. In words: Release of intracellular calcium (FURA 2), cells expressing pCEP4-NK2R-RF1. Type of assay: cell-based, rat. The following applies: for inhibition of the NKA-elicited calcium response: antagonist (5 μM cyclopeptide) then 10 nM NKA. The procedure: as §1, §2
Assay [2] deals with T1, wild-type NK2R receptor. In words: Saturation binding of 3H SR 48968 to whole cells expressing wild-type NK2R. The following applies: two experiments. The procedure:
(§3) After incubation for 30 min. at room temperature, the samples are filtered through GF/C filters (Whatmann) pre-treated in 1% powdered milk in PBS (2.7 mM KCl, 1.47 mM KH2PO4, […], 8.06 mM Na2HPO4), rinsed twice with PBS (4 ml) and then counted in a scintillation cocktail.
(§4) Each 500 μl sample contains 25,000 cells, and the fraction of bound ligand is less than 10% of the amount added to each tube. Filtration is carried out at the end of incubation, as described above.

Assay [3] concerns the target T2, fluorescent receptor NK2R-RF1 (Rattus norvegicus, UniProt P16610).
T2 construct: fused on or other part: EGFP (from pEGFP C3-1) fused at the receptor's N-terminus, preceded by the signal peptide of the hen alpha7 nicotinic receptor subunit; Both are tag or targeting parts and are not part of the key
As to the kind of experiment: Saturation binding of 3H SR 48968 to whole cells expressing NK2R-RF1 (EGFP fused at N-terminal). The following applies: two experiments. The protocol: as §3, §4

Assay [4] relates to fluorescent receptor NK2R-RF1. In words: Displacement of 3H SR 48968 binding (competition experiment), HEK 293 cells expressing NK2R-RF1. Also on record: species or system rat. The following applies: read-out: KI, displacement of 3H SR 48968, 1 nM 3H SR 48968, 25,000 cells, 4° C. The protocol: Each 500 μl sample contains 25,000 cells, 1 nM 3HSR 48968 and a non-radioactive ligand at various concentrations (from 1 nM to 10 μM). The incubation is carried out for one hour at 4° C. Filtration is carried out at the end of incubation, as described in 3b).

Assay [5] deals with non-transfected HEK 293 cells. In words: Release of intracellular calcium (FURA 2), non-transfected cells. Type of assay: cell-based. The procedure:
as §1, §2

The mark [6] stands for this setting: saturation curve, 25,000 cells, 4° C., 1 h 30 min, read-out: affinity value (KD).

“And” between values parts separate entries of the source, which are not always exact repeats. Equal entries are not always repeated. Where two headings read alike, the source gives them in different places.

Take “NKA Eos: eosin derivative of NKA (eosin-5-iodoacetamide)”: the “detection of receptor-fluorescent ligand interaction signal (energy transfer)” value in the assay with NK2R-RF1 receptor is “detection of an NK2R-RF1 receptor-fluorescent ligand interaction signal”.

Take “NKA TR: neurokinin A labeled with sulforhodamine 101 acid chloride (Texas Red)”: the “detection of receptor-fluorescent ligand interaction signal (energy transfer)” value in the assay with NK2R-RF1 receptor was “detection of an NK2R-RF1 receptor-fluorescent ligand interaction signal”.

For “cyclo(-Gln-Trp-Phe-Gly-Leu-Met) (QWFGLM; cyclic; printed: Gln-Trp-Phe-Gly-Leu-Met) [NK2R antagonist cyclopeptide (Bachem)]”, the “inhibition of real-time energy transfer between 100 nM NKA BO I and NK2R-RF1” value in the assay on NK2R-RF1 receptor is recorded as “inhibition”. The “reversal of the energy transfer signal by excess non-labeled ligand, at equilibrium” value in the assay on NK2R-RF1 receptor was “return to the initial fluorescence”. Further, the “inhibition of the NKA-elicited calcium response” value in the assay with wild-type NK2R receptor [1] and in the assay on NK2R-RF1 was “inhibited” in each case.

Usually Kd stands for the free concentration of one partner at which half of the binding sites on the other are occupied at equilibrium, for simple one-to-one binding. For `CC(=O)NC1(c2ccccc2)CCN(CC[C@H](CN(C)C(=O)c2ccccc2)c2ccc(Cl)c(Cl)c2)CC1` [^3H SR 48968], the dissociation constant (Kd) was 1.05 nM and 0.78 nM on wild-type NK2R receptor [2] (setting [6]); 0.8 nM and 0.92 nM in assay [3] (setting [6]). Moreover, the “maximum binding value (B max)” value on wild-type NK2R receptor [2] (saturation curve) is on record as 0.1 pMol/25,000 cells. The “maximum binding (B max) value” in assay [3] (saturation curve) was 0.075 pMol/25,000 cells and 0.088 pMol/25,000 cells.

Regarding `CC(=O)NC1(c2ccccc2)CCN(CC[C@H](CN(C)C(=O)c2ccccc2)c2ccc(Cl)c(Cl)c2)CC1` [SR 48968], the “reversal of the energy transfer signal by excess non-labeled ligand, at equilibrium” value with NK2R-RF1 receptor was “return to the initial fluorescence”. The “inhibition of the NKA-elicited calcium response” value at wild-type NK2R receptor [1] and with NK2R-RF1 was “inhibited” in each case.

In general, Ki refers to the equilibrium dissociation constant of an inhibitor or competing ligand from its target. Consider neurokinin A [NKA], for which, in assay [4], the Ki was 2.1 nM. In the assay on NK2R-RF1 receptor, the “inhibition of real-time energy transfer between 100 nM NKA BO I and NK2R-RF1” value is “inhibition”; the “reversal of the energy transfer signal by excess non-labeled ligand, at equilibrium” value is “return to the initial fluorescence”. In addition, the “effect of non-fluorescent ligand alone on the fluorescence emission spectrum” value in the assay with NK2R-RF1 receptor (cells expressing NK2R-RF1, no fluorescent ligand) is “has no effect on the fluorescence emission spectrum”. The “calcium release response elicited” value on wild-type NK2R receptor [1] (10 nM NKA, 37° C.) was “elicited”. Besides, in the assay with NK2R-RF1 (10 nM NKA, 37° C.), the “calcium release response elicited” value is reported as “elicited”. Besides, in assay [5], the calcium release response entry is “does not elicit any response”.

Consider `CSCC[C@H](NC(=O)[C@H](CC(C)C)NC(=O)CNC(=O)[C@@H](NC(=O)[C@H](Cc1ccccc1)NC(=O)[C@H](CO)NC(=O)[C@H](CC(=O)O)NC(=O)[C@@H](NC(=O)[C@H](CCCCN)NC(=O)[C@H](Cc1c[nH]cn1)NCC(=O)NCCNC(=O)CCc1ccc2n1[B-](F)(F)[N+]1=C(c3ccccc3)C=C(c3ccccc3)C1=C2)[C@@H](C)O)C(C)C)C(N)=O` [NKA BO I], for which the values for the Ki in assay [4] and in assay [4] (listed as NKA-BO I) were 16 nM and 16.1 nM, respectively. Further, the Kd was 24 nM in the assay on NK2R-RF1 receptor (listed as NKA-BO I) and 20 to 30 nM with NK2R-RF1 receptor. Further, the “change of EGFP fluorescence (510 nm) on addition of fluorescent ligand, at equilibrium” value in the assay with NK2R-RF1 receptor (100 nM ligand, excitation 460 nm) is “extinction of the fluorescence of EGFP”.
